Patent US12023365B2, “Sustained release formulations of Crocus sativus” (COUNCIL OF SCIENTIFIC & INDUSTRIAL RESEARCH, priority 2017, dated 2024)

What was measured:
[1] = test system: scopolamine induced memory deficit; assay: Scopolamine induced dementia, passive avoidance test; format: in vivo; conditions: Swiss albino mice, 2 mg/kg
From the text: Animals were randomized to their body weight (n=6-8). All animals were then habituated to experimental apparatus (Passive avoidance instrument of make—UGO Basile Biological Research Apparatus Italy) prior to the experiment. For habituation, animals were placed gently in the light compartment of the apparatus. After 5 seconds guillotine door was opened and animal allowed entering the dark compartment without giving the shock. Animals that took more than 100 seconds to enter the dark room were eliminated from the experiments. For acquisition trial the animals were placed in light compartment and allowed to enter the dark compartment through guillotine door. As soon as the animal entered to the dark compartment, door was closed and animal was delivered a foot shock (0.5 mA current) immediately for the duration of 5 seconds. Animals were then removed from apparatus after 20 seconds and placed temporarily in its home cage. Repeated the same procedure (keeping the gap between acquisition trials to 5 minutes) till the animal remained in the light compartment for consecutive 120 seconds. Retention was recorded at day 2 without shock in dark chamber. Increase in transfer latency time from light to dark chamber indicated learning in animals. Rivastigmine was used as positive control in this study. […] Percentage (%) change in transfer latency as compared with control on retention trial was calculated. […]

[2] = literature (Asai 2005; Liu and Qian 2002); cited from earlier work

CCN(C)C(=O)Oc1cccc([C@H](C)N(C)C)c1 [rivastigmine]
effect on latency time (positive control) [1]: significant reduction in latency time

CC(/C=C/C=C(\C)C(=O)O)=C\C=C\C=C(C)\C=C\C=C(/C)C(=O)O [crocetin]
plasma half-life [2]: ~2 h
